Measured values: BindingDB's records for doi:10.1016/S0960-894X(01)80714-9 (1993)

What was measured:
[1] = The compound was evaluated in vitro for the inhibition of pancreatitic porcine elastase(PPE)
[2] = The compound was evaluated in vitro for the inhibition of rat leukocyte elastase(RLE)

IC50 [1]	IC50 [2]	Structure (SMILES)
> 160 µM	37 µM	CCCC[C@@H]1C(=O)N(C(C)=O)[C@@H]1C(C)=O [(3S,4S)-1,4-Diacetyl-3-butyl-azetidin-2-one]
26 µM	11 µM	CO[C@@H]1C(=O)N(C(C)=O)[C@@H]1C(C)=O [(3S,4S)-1,4-Diacetyl-3-methoxy-azetidin-2-one]
0.7 µM	0.4 µM	CO[C@@H]1C(=O)N(C(C)=O)[C@@H]1c1ccccc1 [(3S,4R)-1-Acetyl-3-methoxy-4-phenyl-azetidin-2-one]
